Data on eight compounds can be found in US20050261330A1, “Derivatives of 2,2,4-trisubstituted tetrahydrofuran an antifungal agents” (priority 2002, published 2005).

For experiment [1], the system named is Cryptococcus neoformans I. As to the kind of experiment: MIC, NCCLS M27A broth dilution. Type of experiment: cell-based. Particulars: RPMI 1640, MOPS pH 7. On the technique in general: In broth dilution the organism is exposed to a series of concentrations in liquid medium.
Experiment [2] concerns Candida tropicalis ATCC 750. As to the kind of experiment: MIC, NCCLS M27A broth dilution. Type of experiment: cell-based. Particulars: RPMI 1640, MOPS pH 7.
A further experiment concerns Candida krusel 766.1. As to the kind of experiment: MIC, NCCLS M27A broth dilution. It counts as cell-based. The following applies: RPMI 1640, MOPS pH 7.
Experiment [3] concerns Aspergillus fumigatus 1008. In words: MIC, NCCLS M38P broth dilution. The following applies: RPMI 1640, MOPS pH 7. It counts as cell-based.
Another experiment has as its system Candida glabrata 90030. In words: MIC, NCCLS M27A broth dilution. The following applies: RPMI 1640, MOPS pH 7. Type of experiment: cell-based.
In experiment [4] the test system is Candida brusei ATCC 6258 (QC). As to the kind of experiment: MIC, NCCLS M27A broth dilution. It counts as cell-based. The following applies: RPMI 1640, MOPS pH 7.
The next experiment deals with Histoplasma capsulatum. It counts as cell-based. The following applies: RPMI 1640, MOPS pH 7.
Experiment [5] concerns Candida albicans ATCC 36082. As to the kind of experiment: MIC, NCCLS M27A broth dilution. The following applies: RPMI 1640, MOPS pH 7. It counts as cell-based.
Experiment [6] has as its system Cryptococcus neoformans M 106. As to the kind of experiment: MIC, NCCLS M27A broth dilution. Type of experiment: cell-based. Particulars: RPMI 1640, MOPS pH 7.
Experiment [7] relates to Aspergillus fumigatus Si-I. In words: MIC, NCCLS M38P broth dilution. It counts as cell-based. The following applies: RPMI 1640, MOPS pH 7.
Experiment [8] has as its system Paecilomyces variotti ATCC 22319 (QC). In words: MIC, NCCLS broth dilution. It counts as cell-based. The following applies: RPMI 1640, MOPS pH 7.
For experiment [9], the system named is Candida parapsilosis ATCC 22019 (QC). As to the kind of experiment: MIC, NCCLS M27A broth dilution. Type of experiment: cell-based. Particulars: RPMI 1640, MOPS pH 7.
The subject of the next experiment is Candida albicans Y-01-19. In words: MIC, NCCLS M27A broth dilution. Particulars: RPMI 1640, MOPS pH 7. Type of experiment: cell-based.
The next experiment has as its system Candida albicans 1122. In words: MIC, NCCLS M27A broth dilution. Particulars: RPMI 1640, MOPS pH 7. Type of experiment: cell-based.
The subject of a further experiment is Candida albicans 1162. In words: MIC, NCCLS M27A broth dilution. Type of experiment: cell-based. The following applies: RPMI 1640, MOPS pH 7.
The target of experiment [10] is T1, ergosterol P450DM (Candida albicans, UniProt P10613).
T1 construct: host or cells: C. albicans lysates
T1 sequence (P10613 whole entry): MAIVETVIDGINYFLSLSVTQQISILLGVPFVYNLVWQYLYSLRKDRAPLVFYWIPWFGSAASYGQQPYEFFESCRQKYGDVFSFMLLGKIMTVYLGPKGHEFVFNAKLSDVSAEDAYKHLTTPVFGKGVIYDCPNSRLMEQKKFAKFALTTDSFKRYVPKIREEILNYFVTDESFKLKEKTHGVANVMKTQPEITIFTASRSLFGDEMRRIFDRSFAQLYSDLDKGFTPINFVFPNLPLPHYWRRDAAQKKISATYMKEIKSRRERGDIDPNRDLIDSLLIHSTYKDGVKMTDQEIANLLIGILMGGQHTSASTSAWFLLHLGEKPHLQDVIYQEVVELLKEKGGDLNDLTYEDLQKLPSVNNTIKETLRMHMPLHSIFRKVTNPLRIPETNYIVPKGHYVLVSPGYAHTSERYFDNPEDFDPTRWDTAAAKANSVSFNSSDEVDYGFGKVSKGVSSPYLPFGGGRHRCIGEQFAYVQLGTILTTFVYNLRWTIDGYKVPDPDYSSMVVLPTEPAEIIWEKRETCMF
The following applies: C. albicans lysates; relative to fluconazole; cited from earlier work.

The subject of experiment [11] is ergosterol P450DM. Particulars: A. fumigatus lysates; relative to fluconazole; cited from earlier work.

Converted amounts (≈) assume the structure as drawn.

In the case of `O=c1n(-c2ccc(Cn3cncn3)cc2)cnn1C[C@@H]1CO[C@@](Cn2cncn2)(c2ccc(F)cc2F)C1` [Compound No. 4], the minimum inhibitory concentration (MIC) – broadly, the least concentration at which growth counts as inhibited – in experiment [1] worked out at 8 µg/mL (≈ 15.4 µM); in experiment [2] it was 16 µg/mL (≈ 30.8 µM); in the experiment on Candida krusel 766.1, 16 µg/mL (≈ 30.8 µM); in experiment [3], 16 µg/mL (≈ 30.8 µM); against Candida glabrata 90030, 16 µg/mL (≈ 30.8 µM); in experiment [4], 16 µg/mL (≈ 30.8 µM). Further, the minimal inhibitory concentration (MIC) was 16 µg/mL (≈ 30.8 µM) against Histoplasma capsulatum; 2 µg/mL (≈ 3.85 µM) in [5]; 8 µg/mL (≈ 15.4 µM) in experiment [6]; 16 µg/mL (≈ 30.8 µM) in experiment [7]; 16 µg/mL (≈ 30.8 µM) in experiment [8]; 8 µg/mL (≈ 15.4 µM) in [9]. In the experiment with Candida albicans Y-01-19, this compound registered a minimum inhibitory concentration (MIC) of 16 µg/mL (≈ 30.8 µM).

As to `O=c1n(-c2ccc(N3CCN(c4ccc(OCc5ccccc5)cc4)CC3)cc2)cnn1C[C@H]1CO[C@@](Cn2cncn2)(c2ccc(F)cc2F)C1` [Compound No. 7, 2-[(5R,3S)-5-(2,4-Difluorophenyl)-tetrahydro-5-(1H-1,2,4-triazol-1yl-methyl)-furan-3-yl-methyl]-4-{4-[4-[4-(benzyloxy)-phenyl]-1-piperazinyl]-phenyl}-2,4-dihydro-3(2H,4H)-1,2,4-triazolone], the minimum inhibitory concentration (MIC) in experiment [1] is 0.06 µg/mL (≈ 0.0851 µM); in [2] it was 0.125 µg/mL (≈ 0.177 µM); against Candida krusel 766.1, 16 µg/mL (≈ 22.7 µM); in [3] it was 16 µg/mL (≈ 22.7 µM); against Candida glabrata 90030, 16 µg/mL (≈ 22.7 µM); in experiment [4] it was 8 µg/mL (≈ 11.4 µM). The minimal inhibitory concentration (MIC) in the experiment on Histoplasma capsulatum was 16 µg/mL (≈ 22.7 µM); in experiment [5], below 0.03 µg/mL; in [6], 0.125 µg/mL (≈ 0.177 µM); in experiment [7] it was 16 µg/mL (≈ 22.7 µM); in experiment [8] it was 1 µg/mL (≈ 1.42 µM); in [9] it was 0.125 µg/mL (≈ 0.177 µM). Also, 16 µg/mL (≈ 22.7 µM) was the least that counted as inhibitory with Candida albicans Y-01-19 (MIC).

With `O=c1n(-c2ccc(-n3cnnn3)cc2)cnn1C[C@@H]1CO[C@@](Cn2cncn2)(c2ccc(F)cc2F)C1` [Compound No. 9, 2-[(5R,3R)-5-(2,4-Difluorophenyl)-tetrahydro-5-(1H-1,2,4-triazol-1yl-methyl)-furan-3-yl-methyl]-4-[4-(1,2,3,4-tetrazol-1-yl)-phenyl]-2,4-dihydro-3(2H,4H)-1,2,4-triazolone], the minimum inhibitory concentration (MIC) was 32 µg/mL (≈ 63.2 µM) in experiment [1]; 8 µg/mL (≈ 15.8 µM) in experiment [2]; 64 µg/mL (≈ 126 µM) against Candida krusel 766.1; 4 µg/mL (≈ 7.9 µM) in the experiment on Candida albicans 1122; above 128 µg/mL in experiment [3]; 64 µg/mL (≈ 126 µM) against Candida glabrata 90030. The MIC in [4] is 64 µg/mL (≈ 126 µM); in the experiment with Histoplasma capsulatum, 64 µg/mL (≈ 126 µM); in experiment [6], 8 µg/mL (≈ 15.8 µM); in [7] it was “≧128 g/ml”; in experiment [8], 32 µg/mL (≈ 63.2 µM); in experiment [9] it was 16 µg/mL (≈ 31.6 µM). In addition, the minimum inhibitory concentration (MIC) against Candida albicans Y-01-19 and with Candida albicans 1162 was 64 µg/mL (≈ 126 µM) in each case.

For “2-[(5R,3S)-5-(2,4-Difluorophenyl)-tetrahydro-5-(1H-1,2,4-triazol-1yl-methyl)-furan-3-yl-methyl]-4-{4-[4-(phenyl)-1-piperazinyl]-chlorophenyl}-2,4-dihydro-3(2H,4H-1,2,4-triazolone [Compound No. 5]”, the MIC in experiment [1] is below 0.03 µg/mL; in experiment [2] it was 0.03 µg/mL; against Candida krusel 766.1, 1 µg/mL; in experiment [3], 2 µg/mL; in the experiment on Candida glabrata 90030 it was 1 µg/mL; in experiment [4], 0.25 µg/mL. The MIC against Histoplasma capsulatum was found to be 0.25 µg/mL; in experiment [5], 0.03 µg/mL; in [6], 0.125 µg/mL; in experiment [7] it was 1 µg/mL; in experiment [8], 1 µg/mL; in [9], 0.03 µg/mL. The compound also registered a minimal inhibitory concentration (MIC) in the experiment on Candida albicans Y-01-19 of 0.125 µg/mL.

On to `O=c1n(-c2ccc(O)cc2)cnn1C[C@H]1CO[C@@](Cn2cncn2)(c2ccc(F)cc2F)C1` [Compound No. 3], for which the MIC is 8 µg/mL (≈ 17.6 µM) in experiment [1]; 16 µg/mL (≈ 35.2 µM) in experiment [2]; 16 µg/mL (≈ 35.2 µM) in the experiment on Candida krusel 766.1; above 16 µg/mL in experiment [3]; 16 µg/mL (≈ 35.2 µM) in the experiment on Candida glabrata 90030; 16 µg/mL (≈ 35.2 µM) in experiment [4]. The MIC with Histoplasma capsulatum was 16 µg/mL (≈ 35.2 µM); in experiment [5], 16 µg/mL (≈ 35.2 µM); in experiment [6] it was 8 µg/mL (≈ 17.6 µM); in [7] it was above 16 µg/mL; in [8] it was above 16 µg/mL; in [9], 16 µg/mL (≈ 35.2 µM). It took 8 µg/mL (≈ 17.6 µM) to inhibit growth in the experiment with Candida albicans Y-01-19 (MIC).

Take “2-[(5R,3S)-5-(2,4-Difluorophenyl)-tetrahydro-5-(1H-1,2,4-triazol-1yl-methyl)-furan-3-yl-methyl]-4-[4-(phenyl)-1,2,4-triazol-1-yl]-2,4-dihydro-3(2H,4H)-1,2,4-triazolone [Compound No. 2]”: the MIC was determined as 8 µg/mL in experiment [1]; 0.5 µg/mL in experiment [2]; 16 µg/mL against Candida krusel 766.1; 16 µg/mL in experiment [3]; 16 µg/mL against Candida glabrata 90030; 8 µg/mL in [4]. The MIC against Histoplasma capsulatum amounted to 16 µg/mL; in experiment [5], 0.125 µg/mL; in [6], 8 µg/mL; in experiment [7] it was 16 µg/mL; in experiment [8], 8 µg/mL; in [9] it was 8 µg/mL. Also, the minimum inhibitory concentration (MIC) against Candida albicans Y-01-19 is 16 µg/mL.

On to `O=c1n(-c2ccc(OCc3ccccc3)cc2)cnn1C[C@H]1CO[C@@](Cn2cncn2)(c2ccc(F)cc2F)C1` [Compound No. 6, 2-[(5R,3S)-5-(2,4-Difluorophenyl)-tetrahydro-5-(1H-1,2,4-triazol-1yl-methyl)-furan-3-yl-methyl]-4-[4-(benzyloxy)-phenyl]-2,4-dihydro-3(2H,4H)-1,2,4-triazolone], for which the MIC in experiment [1] turned out to be 2 µg/mL (≈ 3.67 µM); in [2], 0.06 µg/mL (≈ 0.11 µM); in the experiment with Candida krusel 766.1 it was 8 µg/mL (≈ 14.7 µM); in [3], 16 µg/mL (≈ 29.4 µM); against Candida glabrata 90030, 2 µg/mL (≈ 3.67 µM); in [4], 4 µg/mL (≈ 7.35 µM). Moreover, the minimum inhibitory concentration (MIC) in the experiment with Histoplasma capsulatum worked out at 0.5 µg/mL (≈ 0.918 µM); in experiment [5], 0.03 µg/mL (≈ 0.0551 µM); in [6] it was 2 µg/mL (≈ 3.67 µM); in [7] it was 16 µg/mL (≈ 29.4 µM); in experiment [8] it was 16 µg/mL (≈ 29.4 µM); in [9] it was 0.25 µg/mL (≈ 0.459 µM). The minimum inhibitory concentration (MIC) against Candida albicans Y-01-19 turned out to be 1 µg/mL (≈ 1.84 µM).

For the compound `C[C@@H](c1ncncc1F)[C@](O)(Cn1cncn1)c1ccc(F)cc1F` [Voriconazole], the “greater inhibition of ergosterol P450DM compared to fluconazole” value at ergosterol P450DM [10] is recorded as 1.6 fold; in the experiment on ergosterol P450DM [11] it was 160 fold.
